Assay results as given in US10716762B2, “Transmucosal administration system for a pharmaceutical drug” (LTS Lohmann Therapie-Systeme AG, priority 2012, dated 2020).

Experiments:
[1] = Pharmacokinetics of idebenone after oromucosal (oral wafer) vs. oral (gavage) administration, three way cross-over study; assay type: in vivo, female Beagle dogs; conditions: oral administration by gavage vs. oral-mucosal application
Experimental: Plasma levels of idebenone were studied after the administration of two different thin film formulations (oral wafers) administered via the oromucosal route and compared to the profile obtained when idebenone is dosed by the oral route (gavage) in a micro-emulsion. The doses used in this study were 30 mg oromucosal (oral wafer A, suspension type), 15 mg oromucosal (oral wafer B, solid solution type) and 300 mg oral (TPGS/Miglyol microemulsion administered by oral gavage). The study was a three way cross-over study with one week wash-out between administrations. Formulations were administered to female Beagle dogs under fasted conditions. The pharmacokinetic exposure of free (unconjugated) idebenone and its total metabolites (total idebenone, total QS10, total QS6, and total QS4) was determined for each formulation.
Blood samples were collected at several time points over 6 hours after administration. Concentrations of idebenone in plasma were measured by HPLC-MS/MS and pharmacokinetic parameters were calculated.
For this, idebenone was separated and quantified by HPLC-MS/MS: For HPLC, a SYNERGI™ 4μ MAX-RP (50×2 mm) column (Phenomenex. Schlieren, Switzerland) was used. Column temperature: 50° C. […]
Once separated, idebenone was quantified by ESI-MS/MS (API 4000, Perkin-Elmer-Europe BV, Rotkreuz, Switzerland) in positive mode. […]

[2] = 536 patients, up to 360 mg t.i.d.; Thal et al., Neurology 61 (2003); cited from earlier work
[3] = First-pass metabolism of idebenone through the liver after oral administration; assay type: in vivo; conditions: after absorption in the gut
Text: As a lipophilic compound idebenone is well absorbed in the gastrointestinal tract after conventional oral administration, which is the normal route for administering said compound. Dosage forms such as tablets or capsules have been used in clinical trials and as marketed product. In the course of our investigations on the pharmacological profile of idebenone, we discovered that the compound, after being absorbed in the gut, is metabolized very quickly during its first passage through the liver (“first-pass-effect”). […] Hepatic metabolism of idebenone results in side chain oxidation, reduction of the quinone ring, sulphate and glucuronide conjugation and subsequent renal excretion. The high liver metabolism greatly reduces the potentially high plasma levels of the pharmacologically active idebenone. Because of this strong first pass metabolism, oral administration of idebenone requires high doses of the compound to achieve pharmacologically efficacious plasma levels in the body. Said high doses can result in unwanted side effects such as diarrhea.

In the case of `COC1=C(OC)C(=O)C(CCCCCCCCCCO)=C(C)C1=O` [idebenone, 2,3-dimethoxy-5-methyl-6-(10-hydroxydecyl)-1,4-benzoquinone], the “metabolic spectrum of idebenone” value [1] is listed as “comparable”, the “treatment emergent adverse events compared to placebo” value [2] is listed as “no treatment emergent adverse events except some gastrointestinal irritations as well as a slight increase in orthopedic events” and the “idebenone metabolized during its first passage through the liver” value [3] is listed as “more than 98%”.
